{"source": "patent EP0487768A1", "about": "“Pharmaceutical composition with improved dissolution property” (YOSHITOMI PHARMACEUTICAL INDUSTRIES, LTD., priority 1990, dated 1992)", "experiment": "Solubility of Compound A in mediums with various pHs", "format": "physicochemical", "details": "mediums with various pHs including water (Fig. 4)", "excerpt": "Thus, as shown in Fig. 5 in the results of the dissolution test of the tablets prepared by a conventional means employed for formulation of preparations, such as mixing Compound A with lactose, corn starch, etc. for granulation, adding talc, magnesium stearate, etc. and compressing same, the dissolution property is not entirely satisfactory, reflecting the properties of the compound per se.\nFig. 1 is a graph showing the results of the dissolution test of the fine granules of Reference Example 1 and Example 1 in the 1st fluid and the 2nd fluid, Fig. 2 is a graph showing the results of the dissolution test of the tablets of Reference Example 2 and Example 2 in the 1st fluid and the 2nd fluid, Fig. 3 is a graph showing the results of the dissolution test of the fine granules of Reference Example 1 and Example 3 in the 1st fluid and the 2nd fluid, Fig. 4 is a graph showing the solubilities of Compound A in mediums with various pHs, and Fig. 5 is a graph showing the results of the dissolution test of the tablets prepared by the conventional formulation methods in the 1st fluid and the 2nd fluid.", "data": [{"smiles": "O=c1cc2c(nn1-c1ccc(Cl)cc1)-c1ccccc1[S+]([O-])CC2", "note": "(stereo not shown) [Compound A, 2-(4-chlorophenyl)-5,6-dihydro-(1)benzothiepino[5,4-c]pyridazine-3(2H)-one 7-oxide]", "values": [{"measurement": "solubility", "result": "slightly soluble"}]}]}
